Measurements as given in publication PMC7367283, “A PIP2 substitute mediates voltage sensor-pore coupling in KCNQ activation” (Communications Biology, 2020).

Biological target: T1, HCN4 (Homo sapiens, UniProt Q9Y3Q4)
T1 sequence (Q9Y3Q4 1-1203): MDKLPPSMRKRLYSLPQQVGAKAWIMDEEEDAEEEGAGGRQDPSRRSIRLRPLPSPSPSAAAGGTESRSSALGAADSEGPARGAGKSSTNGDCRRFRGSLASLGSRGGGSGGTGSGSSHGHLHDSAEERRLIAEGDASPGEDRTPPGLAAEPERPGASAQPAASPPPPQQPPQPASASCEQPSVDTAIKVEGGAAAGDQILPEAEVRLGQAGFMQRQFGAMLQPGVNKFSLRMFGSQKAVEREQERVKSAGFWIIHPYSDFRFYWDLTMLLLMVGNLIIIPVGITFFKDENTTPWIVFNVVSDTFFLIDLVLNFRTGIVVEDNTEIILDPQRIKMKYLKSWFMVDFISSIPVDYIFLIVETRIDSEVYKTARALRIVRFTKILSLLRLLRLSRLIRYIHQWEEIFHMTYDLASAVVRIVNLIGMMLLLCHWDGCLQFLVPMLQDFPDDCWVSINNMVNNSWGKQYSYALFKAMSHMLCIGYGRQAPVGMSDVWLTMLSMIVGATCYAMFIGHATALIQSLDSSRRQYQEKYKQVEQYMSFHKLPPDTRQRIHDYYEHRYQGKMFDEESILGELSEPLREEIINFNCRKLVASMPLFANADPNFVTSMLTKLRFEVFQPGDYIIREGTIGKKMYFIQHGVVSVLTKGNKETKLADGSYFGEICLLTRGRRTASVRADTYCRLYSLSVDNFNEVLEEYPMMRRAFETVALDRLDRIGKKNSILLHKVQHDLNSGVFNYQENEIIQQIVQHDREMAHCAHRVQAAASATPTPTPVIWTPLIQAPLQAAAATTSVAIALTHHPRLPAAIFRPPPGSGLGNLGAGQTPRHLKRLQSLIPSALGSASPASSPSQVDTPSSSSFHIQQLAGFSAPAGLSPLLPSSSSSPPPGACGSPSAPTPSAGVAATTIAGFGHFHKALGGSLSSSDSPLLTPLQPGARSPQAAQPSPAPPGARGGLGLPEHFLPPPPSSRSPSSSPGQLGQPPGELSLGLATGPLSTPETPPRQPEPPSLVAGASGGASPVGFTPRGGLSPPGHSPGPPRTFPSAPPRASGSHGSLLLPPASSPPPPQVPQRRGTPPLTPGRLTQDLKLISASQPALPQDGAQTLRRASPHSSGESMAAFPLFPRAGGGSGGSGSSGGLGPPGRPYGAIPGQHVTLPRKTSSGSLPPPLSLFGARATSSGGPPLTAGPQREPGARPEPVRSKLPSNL
Test: Two-electrode voltage clamp of HCN4 in Xenopus oocytes
Assay type: cell-based
Conditions: 10 µM CP1
Text: Since CP1 has a similar effect to PIP2 in mediating VSD-pore coupling in KCNQ channels, we tested if CP1 has effects on other ion channels that are also sensitive to PIP2 or are voltage activated and share general structural features of the VSD and the pore with KCNQ. […] On the other hand, NaV1.5 and KV4.2 are voltage-gated ion channels.
Fig. 6 Effects of CP1 on other ion channels expressed in Xenopus oocytes. a Currents of Kir1.1, CaV1.2, NaV1.5, hERG, and KV4.2 before and after application of 10 µM CP1, respectively. The voltages for holding, test, and returning pulses were Kir1.1, 0 mV, −100 to +60 mV, 0; CaV1.2, −100 mV, −100 to +60, −100 mV; NaV1.5, −100, −120 to +40 mV, −120 mV; hERG, −80 mV, −90 to +60 mV, −60 mV; KV4.2, −80 mV, −100 mV to +80 mV, −40 mV; HCN4, −30 mV, −30 to −140 mV, −120 mV. b Current–voltage relations of Kir1.1 channel in the absence or presence of 10 µM CP1 (n = 7). c–g G–V relations of indicated channels with and without 10 µM CP1. The ΔV1/2 of G–V relations (mV) are CaV1.2, 3.38 ± 0.71 mV (c); NaV1.5, −2.26 ± 0.95 mV (d); hERG, 6.85 ± 1.81 mV (e); KV 4.2, −2.26 ± 2.88 mV (f); HCN4, 17.13 ± 1.59 mV (g).
Complementary DNA (cDNA) encoding human KCNQ1 (UniProtKB/Swiss‐Prot under accession no. P51787), KCNQ2 (O43526), KCNQ3 (O43525), KCNE1 (P15382), Kir1.1 (P48048), hERG (Q12809), KV4.2 (Q63881), NaV1.5 (Q14524), NaV β1 (Q07699), CaV1.2 (Q13936), CaV β1a (Q02641), CaV α2/δ1 (P54289), and HCN4 (Q9Y3Q4) were subcloned into oocyte expression vectors, respectively. Site-directed mutations of the KCNQ1 channel were all produced by overlap extension polymerase chain reaction (PCR) with high-fidelity Pfu polymerase (Stratagene, CA). The presence of the desired mutation was verified by sequencing the PCR-amplified regions. All the primer sequences used in this study are available in Supplementary Table 1. The complementary RNA (cRNA) of all these channels and mutations was transcribed in vitro with the T3, T7, or SP6 polymerase mMessage mMachine kit (Invitrogen, Thermo Fisher Scientific, MO).
The whole-oocyte ionic currents were recorded with a GeneClamp 500B amplifier (Axon Instruments, CA) or iTEV90 amplifier (HEKA, Germany) and then sampled at 1 kHz and low-pass-filtered at 2 kHz. The Patchmaster software (HEKA, Germany) was used to acquire data. The Kir1.1 current was recorded with a high K^+ bath solution containing (in mM) 96 KCl, 4 NaCl, 1 CaCl2, 2 MgCl2, and 10 HEPES, pH 7.3–7.4. The HCN4 current was recorded in ND66 solution containing (in mM) 66 NaCl, 32 KCl, 1.8 CaCl2, 1 MgCl2, and 5 HEPES, pH 7.6. All the other potassium channels were recorded in ND96 solution. The currents of CaV1.2 channel were recorded in 40 mM Ba^2+ bath solution containing (in mM) 40 Ba(OH)2, 50 TEA-OH, 2 KOH, and 5 HEPES, adjusted to pH 7.4 with methanesulfonic acid. CP1 (DISODIUM 5-BROMO-2-[9-CHLORO-3-(SULFONATOOXY) NAPHTHO [1,2-B] THIEN-2-YL]-1H-INDOL-3-YL SULFATE, Sigma-Aldrich, MO) and Chromanol 293B (Sigma-Aldrich, MO) were dissolved in bath solutions. All the chemicals were purchased from Sigma-Aldrich. To measure the I–V relations of the Kir1.1 channel, the test voltage was set from −100 to +60 mV for 1 s with 20-mV increments. The test pulses were stepped from a holding potential of 0 mV and then stepped back to 0 mV. The HCN4 currents were recorded by a test pulse between −30 and −140 mV in 10-mV step from a holding potential of −30 mV. For all the other potassium channels and CaV1.2 channel, the holding potential was −80 or −100 mV, and the test pulse was applied with 10-mV increment, which was followed with a repolarization pulse at −40 mV before returning to the holding potential. The durations of test and the repolarization pulse vary for different channels to allow the activation and deactivation of the channel to reach their steady states.

O=S(=O)([O-])Oc1c(-c2sc3c(ccc4cccc(Cl)c43)c2OS(=O)(=O)[O-])[nH]c2ccc(Br)cc12.[Na+].[Na+] [CP1, DISODIUM 5-BROMO-2-[9-CHLORO-3-(SULFONATOOXY) NAPHTHO [1,2-B] THIEN-2-YL]-1H-INDOL-3-YL SULFATE]
ΔV1/2 of G–V relations: 17.13 ± 1.59 mV | G/Gmax Mean (Fig. 6g) (voltage -30 mV): 0.0988 | G/Gmax Mean (Fig. 6g) (voltage -40 mV): 0.0945 | G/Gmax Mean (Fig. 6g) (voltage -50 mV): 0.1008 | G/Gmax Mean (Fig. 6g) (voltage -60 mV): 0.1162 | G/Gmax Mean (Fig. 6g) (voltage -70 mV): 0.1464 | G/Gmax Mean (Fig. 6g) (voltage -80 mV): 0.2025 | G/Gmax Mean (Fig. 6g) (voltage -90 mV): 0.2959 | G/Gmax Mean (Fig. 6g) (voltage -100 mV): 0.4355 | G/Gmax Mean (Fig. 6g) (voltage -110 mV): 0.6065 | G/Gmax Mean (Fig. 6g) (voltage -120 mV): 0.7756 | G/Gmax Mean (Fig. 6g) (voltage -130 mV): 0.9097 | G/Gmax Mean (Fig. 6g) (voltage -140 mV): 1.0000
